These results are taken from article PMC12749748, “Chemically-induced degradation of the endoplasmic-reticulum stress sensor IRE1 by a VHL-recruiting chimera” (Nature Communications, 2025).

Test [1] has as its system AMO1 cells. Kind of test: Incucyte cell confluency, AMO1 cells. It is filed as cell-based. The protocol: (§1) For non-adherent AMO1, KMS27, and OPM2 cells, cells were plated at 5000 cells/well in ultra-low attachment (ULA) 96-well plates (Costar, #7007) and centrifuged at 600 × g for 5 min for spheroid formation. For adherent U2OS and Colo201 cells, 2000 cells/well were seeded in a clear flat-bottom 96-well plate (Costar, #3595). Treatments were added at the time of cell seeding, and cells were cultured in complete RPMI media to a final volume of 200 µL/well. Cultures were maintained at 37 °C throughout the duration of the experiment. Cell confluency was tracked using the Incucyte live-cell imaging system (Sartorius S3). Picture frames were captured every 4 h with a 4× objective, and cell confluency (%) from the total well area as a function of time was calculated using the Incucyte software (version 2023 A Rev2).

Test [2] deals with OPM2 cells. Description: Incucyte cell confluency, OPM2 cells. The class given is cell-based. To be noted: OPM2 shIRE1 cells, titration. As to the method: as §1
Test [3] concerns IRE1-dependent or -independent cell lines. Kind of test: Incucyte, IRE1-dependent or -independent cell lines together. It is filed as cell-based. The protocol: as §1
Test [4] concerns the target IRE1 (Homo sapiens, UniProt O75460). Kind of test: Endogenous IRE1 protein levels in AMO1 or H929 cells (immunoblot). To be noted: 1 µM, 4 hr. On the set-up: Immunoblot (IB) analysis of endogenous IRE1 depletion in AMO1 cells; endogenous in cells; host or cells: AMO1, KMS27, H929. The class given is cell-based. The protocol:
(§2) Cells were lysed in buffer containing 20 mM HEPES 7.2, 150 mM NaCl, and 1% Triton X-100, supplemented with fresh protease and phosphatase inhibitors (Invitrogen, #78440), cleared by centrifugation at 12,000 × g for 10 min, and analyzed by BCA protein assay (Thermo Fisher Scientific, #23227). Equal protein amounts were loaded, separated by SDS-PAGE, electrotransferred to nitrocellulose membranes using the iBLOT2 system (Invitrogen), and blocked in 5% nonfat milk solution for 60 min. Membranes were probed with primary antibodies at 1:1000 dilution in 5% milk at 4 °C overnight. Signal was detected using appropriate horseradish peroxidase (HRP)-conjugated secondary antibodies at 1:10,000 in 5% milk at room temperature for 1–2 h. Bands were visualized by the Azure 600 western blot imaging system (Azure Biosystems). For in vitro ubiquitination assays performed with Me-Ub, bands were visualized by the Odyssey CLx Imager (LI‑COR) after incubating the blots with the IRDye 800CW (LI-COR) secondary antibodies at 1:10,000 in Intercept Blocking Buffer (LI-COR) at room temperature for 1–2 h.
Background: A western blot detects proteins with antibodies after separation by electrophoresis.

Test [5] relates to KMS27 cells. Description: Incucyte cell confluency, KMS27 cells. The class given is cell-based. Particulars: KMS27 shIRE1 cells, titration. As to the method:
as §1

Test [6] deals with T1, IRE1:VHL (Homo sapiens, UniProt O75460+P40337). Description: NanoBRET IRE1:VHL interaction, WT IRE1, HEK293T cells. The class given is cell-based. On the set-up: N2731 (HaloTag-VHL); host or cells: HEK293T. To be noted: HEK293T, 1 µM G6374 and a titration of G5758. As to the method:
8 × 10^5 293T cells per well were seeded in 6-well plates (Costar, #3516) and incubated at 37 °C, 5% CO2 for 6 h. A mixture of 0.2 µg ERN1 (IRE1)-NanoLuc Fusion Vector (Promega, NV1321), 2 µg HaloTag-VHL Fusion Vector (Promega, N2731), 6 µl FuGENE HD Transfection Reagent (Promega, E2311), and 100 µL Opti-MEM I reduced serum medium (Gibco, #31985062) per well was incubated at room temperature for 20 min before adding to cells. For expression of IRE1 mutants, site-directed mutagenesis was performed using the ERN1-NanoLuc Fusion Vector as the DNA template, and the transfection mixture was prepared in the same way as WT IRE1. After 18 h, cells from 6-well plates were trypsinized, resuspended in Opti-MEM I reduced serum medium, and reseeded into 96-well plates (Costar, #3917), with or without the addition of HaloTag NanoBRET 618 Ligand (Promega, G9801). […] After 2 h of G6374 treatment, NanoBRET Nano-Glo Substrate (Promega, N1571) was added to cells. The 96-well plates were imaged by GloMax Discover Microplate Reader (Promega, GM3000) with the default “BRET: NanoBRET 618” protocol (Donor: 450 BP; Acceptor: 600 LP; Integration: 0.3 s). Data analysis was performed according to the user manual.
(BRET reads energy transfer from a luciferase to a nearby fluorophore.)

The target in test [7] is T1, IRE1:VHL. Description: co-IP of endogenous VHL with endogenous IRE1 from AMO1 cells. To be noted: G5758 in excess of G6374. Set-up: co-IP of endogenous VHL with endogenous IRE1 from AMO1 cells; endogenous in cells; host or cells: AMO1. It is filed as cell-based. The protocol:
as §2
IRE1.LD antibodies were conjugated to agarose beads using the AminoLink® Plus Immobilization Kit (Thermo Fisher, #44894). […]

Test [8] relates to WDR5. On the set-up: method as in earlier work. To be noted: VHL:PROTAC:WDR5; cited from earlier work.
The test system of test [9] is BRD4. On the set-up: method as in earlier work. To be noted: VHL:PROTAC:BRD4; cited from earlier work.
For test [10], the target named is VCB (VHL:EloC:EloB) (Homo sapiens, UniProt P40337). Kind of test: Surface plasmon resonance, binary interaction with VCB. The class given is binding. To be noted: SPR, immobilised VCB, 20 °C, 1 to 1 kinetic model. The protocol:
All SPR experiments in this paper were recorded on a Biacore S200 instrument; all protein captures and data collection were at 20 °C.
For binary interactions with G6374: a Xantec SAHC 200 M (streptavidin) chip was inserted into the instrument and primed into running buffer [50 mM HEPES (pH 7.4), 150 mM NaCl, 0.001% Tween 20, 0.2% PEG3350, 0.25 mM TCEP, and 2% DMSO]. Biotinylated human IRE1.KR protein was captured on FC2 to 2-4000 RU, biotinylated VHL in complex with Elongin B (VHL/EloB) was captured on FC4 to 1-2000 RU, data were collected, and all referenced to FC1. Affinity for G6374 was measured using a titration series, injected from low to high with an 8-point, 2-fold dilution dose response with a top concentration of 0.5 μM in both single cycle (single cycle kinetics (SCK)) and multi cycle kinetics (MCK) formats. For MCK experiments, an association time of 45 s and a dissociation time of 200 s with a flow rate of 50 μL/min. For SCK experiments, an association time of 45 s and a dissociation time of 2000 s with a flow rate of 50 μL/min were used. All data were analyzed using Insight software (Cytiva) using a 1 to 1 kinetic binding model.
Background: SPR reads the build-up and loss of mass on a sensor chip optically.

For `Cc1ncsc1-c1ccc(CNC(=O)[C@@H]2C[C@H](O)CN2C(=O)[C@@H](NC(=O)CCCCN2CCN(C3CCC(Nc4ncc5ccc(=O)n(C(C)C)c5n4)CC3)CC2)C(C)(C)C)cc1` (some centres unmarked) [G2642], the “growth inhibition (cell confluency)” value is “neither its epimer control G2642, nor the VHL ligand VH032, induced a concentration-dependent growth inhibition” in [1] (AMO1 shIRE1 cells, titration); “neither its epimer control G2642, nor the VHL ligand VH032, induced a concentration-dependent growth inhibition” in [2]; “neither its epimer control G2642, nor the VHL ligand VH032, induced a concentration-dependent growth inhibition” in test [5]. For the same molecule, the anti-proliferative activity entry in test [3] is “no anti-proliferative activity”. Further, in [4], the “degradation of cellular IRE1” value is reported as “does not degrade cellular IRE1”.

Consider `O=S(=O)(Cc1ccccc1)Nc1c(F)cc(Oc2ncccc2-c2ccnc(N[C@@H]3CNC[C@@H](F)C3)n2)c(F)c1F` [G5758, reference compound], for which the “disruption of G6374-induced IRE1:VHL interaction (NanoBRET)” value in test [6] is “could disrupt G6374-induced interaction between IRE1 and VHL”. The “competition with G6374-induced IRE1:VHL association and IRE1 depletion (co-IP)” value in test [7] is “attenuated the induced association between IRE1 and VHL as well as the depletion of IRE1”.

As for `Cc1ncsc1-c1ccc([C@H](C)NC(=O)[C@@H]2C[C@@H](O)CN2C(=O)[C@@H](NC(=O)CNC(=O)c2ccc(F)c(-c3ccc(N4C[C@@H](C)N(C)[C@@H](C)C4)c(NC(=O)c4c[nH]c(=O)cc4C(F)(F)F)c3)c2)C(C)(C)C)cc1` [MS67], in test [8], the DC50 is 3.7 nM and the Dmax is on record as 94%.

For `Cc1ncsc1-c1ccc(CNC(=O)[C@@H]2C[C@@H](O)CN2C(=O)[C@@H](NC(=O)COCCOCCOCCNC(=O)C[C@@H]2N=C(c3ccc(Cl)cc3)c3c(sc(C)c3C)-n3c(C)nnc32)C(C)(C)C)cc1` [MZ1], in [9], the DC50 was […] and the Dmax is […].

In the case of `CC(=O)c1cnc2ccc(-c3cc(Cl)c(O)c(Cl)c3)nc2c1N[C@H]1CC[C@H](CN(C)C)CC1` [OTSSP167, reference compound], the “proliferation of AMO1 cells” value in test [1] (at 3X the IC50 of OTSSP167) was “did not”.

In test [10], `CC(=O)N[C@H](C(=O)N1C[C@H](O)C[C@H]1C(=O)NCc1ccc(-c2scnc2C)cc1)C(C)(C)C` [VH032, reference compound] displayed a ka of 550000 M⁻¹ s⁻¹ and a kd of 0.13 s⁻¹.
